Assay results as given in PubChem BioAssay AID2060509 (Molecular Pharmacology Branch, DTP, NCI, 2025).

System: 485176-168-R4-J1-PDC spheroids with HUVEC/MSC, viability
Assay: Anticancer human tumor 485176-168-R4-J1-PDC patient-derived pancreatic adenocarcinoma cell line growth inhibition [GQUAD]
Settings: for IC50: curve of first compound; for viability, T/C: stronger effect = lower value
Procedure, shortened: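 Viability of tumor cells grown as complex spheroids with endothelial and stromal cells, exposed to drug combinations. Top concentration at or near clinical Cmax (else 10 microM), diluted in half-log increments.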

[1] = second compound 0.0316 µM, first compound 0.0316 µM
[2] = second compound 0.0316 µM, first compound 0.1 µM
[3] = second compound 0.0316 µM, first compound 0.316 µM
[4] = second compound 0.0316 µM, first compound 1 µM
[5] = second compound 0.0316 µM, first compound 3.16 µM
[6] = second compound 0.0316 µM, first compound 10 µM
[7] = second compound 0.1 µM, first compound 0.0316 µM
[8] = second compound 0.1 µM, first compound 0.1 µM
[9] = second compound 0.1 µM, first compound 0.316 µM
[10] = second compound 0.1 µM, first compound 1 µM
[11] = second compound 0.1 µM, first compound 3.16 µM
[12] = second compound 0.1 µM, first compound 10 µM
[13] = second compound 0.316 µM, first compound 0.0316 µM
[14] = second compound 0.316 µM, first compound 0.1 µM
[15] = second compound 0.316 µM, first compound 0.316 µM
[16] = second compound 0.316 µM, first compound 1 µM
[17] = second compound 0.316 µM, first compound 3.16 µM
[18] = second compound 0.316 µM, first compound 10 µM
[19] = second compound 1 µM, first compound 0.0316 µM
[20] = second compound 1 µM, first compound 0.1 µM
[21] = second compound 1 µM, first compound 0.316 µM
[22] = second compound 1 µM, first compound 1 µM
[23] = second compound 1 µM, first compound 3.16 µM
[24] = second compound 1 µM, first compound 10 µM
[25] = second compound 3.16 µM, first compound 0.0316 µM
[26] = second compound 3.16 µM, first compound 0.1 µM
[27] = second compound 3.16 µM, first compound 0.316 µM
[28] = second compound 3.16 µM, first compound 1 µM
[29] = second compound 3.16 µM, first compound 3.16 µM
[30] = second compound 3.16 µM, first compound 10 µM
[31] = second compound 10 µM, first compound 0.0316 µM
[32] = second compound 10 µM, first compound 0.1 µM
[33] = second compound 10 µM, first compound 0.316 µM
[34] = second compound 10 µM, first compound 1 µM
[35] = second compound 10 µM, first compound 3.16 µM
[36] = second compound 10 µM, first compound 10 µM
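Further: spheroids exposed to compounds for seven days before readout.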
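Wherever viability, T/C is given: percent viability relative to DMSO vehicle control wells as 100%.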

CC(C)n1c(=O)n(C)c2cnc3cc(F)c(-c4ccc(OCCCN5CCCCC5)nc4)cc3c21 + Cc1cnc(CNC(=O)c2c(=O)c3ccc(N4CCCN(C)CC4)nc3n3c2sc2ccccc23)cn1
IC50 (second compound 0.0316 µM): > 10000 nM | IC50 (second compound 0.1 µM): < 31.6 nM | IC50 (second compound 0.316 µM): < 31.6 nM | IC50 (second compound 1 µM): < 31.6 nM | IC50 (second compound 3.16 µM): < 31.6 nM | IC50 (second compound 10 µM): < 31.6 nM | viability, T/C [1]: 65% | viability, T/C [2]: 50.2% | viability, T/C [3]: 63.1% | viability, T/C [4]: 59.2% | viability, T/C [5]: 62.2% | viability, T/C [6]: 61.2% | viability, T/C [7]: 40.2% | viability, T/C [8]: 47.4% | viability, T/C [9]: 35.6% | viability, T/C [10]: 50% | viability, T/C [11]: 49.2% | viability, T/C [12]: 47.5% | viability, T/C [13]: 39.6% | viability, T/C [14]: 36% | viability, T/C [15]: 30.4% | viability, T/C [16]: 33.5% | viability, T/C [17]: 34.5% | viability, T/C [18]: 41.3% | viability, T/C [19]: 27% | viability, T/C [20]: 30.2% | viability, T/C [21]: 34.2% | viability, T/C [22]: 34.5% | viability, T/C [23]: 30% | viability, T/C [24]: 34.7% | viability, T/C [25]: 36.1% | viability, T/C [26]: 34.3% | viability, T/C [27]: 33.5% | viability, T/C [28]: 34.7% | viability, T/C [29]: 29.5% | viability, T/C [30]: 25.6% | viability, T/C [31]: 27% | viability, T/C [32]: 27.7% | viability, T/C [33]: 28.9% | viability, T/C [34]: 28.2% | viability, T/C [35]: 25.2% | viability, T/C [36]: 24.5%

CCCS(=O)(=O)Nc1ccc(F)c(C(=O)c2c[nH]c3ncc(-c4ccc(Cl)cc4)cc23)c1F + Cc1[nH]c2ccc(F)cc2c1-c1nc2c3cccnc3c3ncccc3c2[nH]1
IC50 (second compound 0.0316 µM): > 10000 nM | IC50 (second compound 0.1 µM): > 10000 nM | IC50 (second compound 0.316 µM): > 10000 nM | IC50 (second compound 1 µM): > 10000 nM | IC50 (second compound 3.16 µM): > 10000 nM | IC50 (second compound 10 µM): > 10000 nM | viability, T/C [1]: 95% | viability, T/C [2]: 93.6% | viability, T/C [3]: 96.1% | viability, T/C [4]: 94.8% | viability, T/C [5]: 116% | viability, T/C [6]: 75.5% | viability, T/C [7]: 84.8% | viability, T/C [8]: 102% | viability, T/C [9]: 87.8% | viability, T/C [10]: 86.1% | viability, T/C [11]: 99.1% | viability, T/C [12]: 71.2% | viability, T/C [13]: 105% | viability, T/C [14]: 86.1% | viability, T/C [15]: 90.7% | viability, T/C [16]: 82.9% | viability, T/C [17]: 80.1% | viability, T/C [18]: 67.2% | viability, T/C [19]: 87.2% | viability, T/C [20]: 85.2% | viability, T/C [21]: 76.7% | viability, T/C [22]: 84.2% | viability, T/C [23]: 77.5% | viability, T/C [24]: 69.5% | viability, T/C [25]: 104% | viability, T/C [26]: 88.6% | viability, T/C [27]: 89% | viability, T/C [28]: 72.1% | viability, T/C [29]: 84% | viability, T/C [30]: 63.5% | viability, T/C [31]: 84.9% | viability, T/C [32]: 91% | viability, T/C [33]: 88.4% | viability, T/C [34]: 74.9% | viability, T/C [35]: 66.6% | viability, T/C [36]: 51.7%

CC[C@@]1(O)C(=O)OCc2c1cc1n(c2=O)Cc2cc3c(CN(C)C)c(O)ccc3nc2-1 + Cc1[nH]c2ccc(F)cc2c1-c1nc2c3cccnc3c3ncccc3c2[nH]1
IC50 (second compound 0.0316 µM): 134 nM | IC50 (second compound 0.1 µM): 178 nM | IC50 (second compound 0.316 µM): 89 nM | IC50 (second compound 1 µM): 125 nM | IC50 (second compound 3.16 µM): 121 nM | IC50 (second compound 10 µM): 148 nM | viability, T/C (second compound 0.0316 µM, first compound 0.000999 µM): 124% | viability, T/C (second compound 0.0316 µM, first compound 0.00316 µM): 107% | viability, T/C (second compound 0.0316 µM, first compound 0.00999 µM): 99.4% | viability, T/C [1]: 70.6% | viability, T/C (second compound 0.0316 µM, first compound 0.0999 µM): 57.5% | viability, T/C [3]: 34.4% | viability, T/C (second compound 0.1 µM, first compound 0.000999 µM): 85.6% | viability, T/C (second compound 0.1 µM, first compound 0.00316 µM): 83.4% | viability, T/C (second compound 0.1 µM, first compound 0.00999 µM): 97.1% | viability, T/C [7]: 89.8% | viability, T/C (second compound 0.1 µM, first compound 0.0999 µM): 59% | viability, T/C [9]: 41.1% | viability, T/C (second compound 0.316 µM, first compound 0.000999 µM): 106% | viability, T/C (second compound 0.316 µM, first compound 0.00316 µM): 94.7% | viability, T/C (second compound 0.316 µM, first compound 0.00999 µM): 108% | viability, T/C [13]: 75.6% | viability, T/C (second compound 0.316 µM, first compound 0.0999 µM): 50.3% | viability, T/C [15]: 38.5% | viability, T/C (second compound 1 µM, first compound 0.000999 µM): 93.3% | viability, T/C (second compound 1 µM, first compound 0.00316 µM): 105% | viability, T/C (second compound 1 µM, first compound 0.00999 µM): 118% | viability, T/C [19]: 82.9% | viability, T/C (second compound 1 µM, first compound 0.0999 µM): 56% | viability, T/C [21]: 36.5% | viability, T/C (second compound 3.16 µM, first compound 0.000999 µM): 88.1% | viability, T/C (second compound 3.16 µM, first compound 0.00316 µM): 99.7% | viability, T/C (second compound 3.16 µM, first compound 0.00999 µM): 79.9% | viability, T/C [25]: 65.3% | viability, T/C (second compound 3.16 µM, first compound 0.0999 µM): 57.2% | viability, T/C [27]: 33.8% | viability, T/C (second compound 10 µM, first compound 0.000999 µM): 81.5% | viability, T/C (second compound 10 µM, first compound 0.00316 µM): 101% | viability, T/C (second compound 10 µM, first compound 0.00999 µM): 68.3% | viability, T/C [31]: 77.2% | viability, T/C (second compound 10 µM, first compound 0.0999 µM): 58.2% | viability, T/C [33]: 34%
